Assay results reported in the NIST ThermoML archive (doi:10.1016/j.jct.2016.08.002).

Columns and labels:
[1] = for vapor or sublimation pressure: Transpiration method; for Normal melting temperature: DTA
[2] = Molar enthalpy of transition or fusion; settings: Crystal; DSC

NC(=O)c1ccncc1 [4-pyridinecarboxamide]
[1], Crystal
Settings	vapor or sublimation pressure [kPa]
358.2 K	0.00043
363.3 K	0.00072
368.4 K	0.00117
373.4 K	0.0019
373.5 K	0.00191
378.5 K	0.00296
383.7 K	0.00472
388.7 K	0.00724
393.8 K	0.01115
398.8 K	0.01672
404 K	0.02482
409 K	0.03719

Settings	Normal melting temperature [°C]
[1], Crystal	155.2

Settings	Molar enthalpy of transition or fusion [kJ/mol]
[2]	23.1

NC(=O)c1cccnc1 [3-pyridinecarboxamide]
[1], Crystal
Settings	vapor or sublimation pressure [kPa]
353.2 K	0.00036
358.3 K	0.0006
363.4 K	0.00104
363.5 K	0.00105
370.6 K	0.00207
378.6 K	0.00436
383.8 K	0.0069
388.8 K	0.01096
394.9 K	0.01844
398.9 K	0.02467

Settings	Normal melting temperature [°C]
[1], Crystal	130.1

Settings	Molar enthalpy of transition or fusion [kJ/mol]
[2]	23.9

NC(=O)c1ccccn1 [2-pyridinecarboxamide]
[1]
Settings	vapor or sublimation pressure [kPa]
343 K, Crystal	0.0079
348 K, Crystal	0.0125
353.1 K, Crystal	0.0192
353.2 K, Crystal	0.0194
358.2 K, Crystal	0.0302
363.3 K, Crystal	0.0459
368.3 K, Crystal	0.0687
373.3 K, Crystal	0.1028
385.4 K, Liquid	0.2394
390.4 K, Liquid	0.3199
395.5 K, Liquid	0.416
400.6 K, Liquid	0.5427
405.6 K, Liquid	0.7049
410.7 K, Liquid	0.9324
415.8 K, Liquid	1.202

Settings	Normal melting temperature [°C]
[1], Crystal	106.4

Settings	Molar enthalpy of transition or fusion [kJ/mol]
[2]	19.2
